We go through one compound from patent US11065296B2, “Antimicrobial peptide, its analog and use” (City University of Hong Kong, priority 2018, dated 2021).

For data set [1], the system named is Staphylococcus aureus ATCC 6538. It is filed as cell-based.
Method: (§1) MIC denotes the lowest concentration of an antimicrobial agent that can inhibit the growth of bacteria after overnight incubation.
(§2) Bacteria were grown in their respective media (Table 2 above) overnight at 37° C. or room temperature with constant shaking and then diluted to 10^6 CFU/ml in their respective medium. Stock solutions of peptides at 0.68 mM were prepared in distilled water. Bacteria and peptide were incubated (50 μl: 50 μl) to make the final peptide concentrations (0.68, 3.4, 6.8, 13.7, 34.1, 68.3, 136.5 μM) in a 96-microtitre plate and incubated for 24 h with constant shaking. […] Absorbance at 600 nm was detected every 3 h up to 24 h to obtain the growth curves. The minimal inhibition concentration (MIC) was defined as the lowest concentration of an antimicrobial agent that could inhibit the growth of bacteria after overnight incubation.
Data set [2] in a line: Toxicity in adult Medaka fish, intraperitoneal injection. Particulars: intraperitoneally injected with 1 μg, up to 14 days. The class given is in vivo. Here is the method:
FIG. 11A is a plot showing the effect of Peptide A on viability of cultured mammalian cells, incubated for 48 h in the presence of Peptide A at different concentrations (μg/ml), as determined by MTT assay. Cell viability represented as peptide treated cell numbers over medium-only control. Statistically significant difference as compared to controls (*: p<0.05, **: p<0.01, n=4). FIG. 11B is a plot showing the ability of Peptide A to protect medaka from lethal challenge of E. tarda ([…]). Medaka was injected with 1 μl of Peptide A (0.68 mM), with 1 μl of E. tarda (10^7 CFU/ml) and Peptide A (0.68 mM) mixture, or with E. tarda alone (1 μl of E. tarda:10^7 CFU/ml). […] 20 fish per group. Log-rank (Mantel-Cox) test was applied for the comparison of survival curves (**: p<0.01).
The efficacy of the synthesized AMP to protect medaka against infection was characterized using host resistance assays with intraperitoneal (i.p.) injection of bacteria using a micro-injection machine (PV820 Pneumatic PicoPump). […] The number of dead fish was counted on a daily basis until two weeks after the injections.

The test system of data set [3] is Aeromonas hydrophila ATCC 49140. The class given is cell-based.
Method: as §1, §2
Data set [4] has as its system Streptococcus Faecalis. The class given is cell-based.
Method: as §1, §2
Data set [5] has as its system E. coli. It is filed as cell-based.
Data set [6] relates to E. cloacae BAA-1143. The class given is cell-based.
Method: as §1, §2
The test system of data set [7] is Escherichia coli ATCC 10536. The class given is cell-based.
Method: as §1, §2

Peptide text beside a SMILES is read from it.

`CC[C@H](C)[C@H](N)C(=O)N[C@@H](CCCNC(=N)N)C(=O)N[C@H](C(=O)N[C@H](C(=O)N[C@@H](CC(C)C)C(=O)N[C@@H](CCCNC(=N)N)C(=O)N[C@@H](C)C(=O)N[C@@H](CCC(N)=O)C(=O)NCC(=O)N[C@@H](C)C(=O)N[C@@H](CC(C)C)C(=O)N[C@@H](CCCCN)C(=O)N[C@H](C(=O)O)[C@@H](C)CC)[C@@H](C)CC)[C@@H](C)CC` [Peptide A, IRIILRAQGALKI] (H-IRIILRAQGALKI-OH; N-terminus and C-terminus assumed): the MICs amounted to 13.7 µM in data set [1]; 13.7 µM in data set [3]; 34.1 µM in data set [4]; 21.8 µM in data set [6]; 3.4 µM in data set [7]. Moreover, in data set [2], the adverse effect result is “no adverse effect”. In data set [5], the “MIC for E. coli” value is 3.4 µM.
